System: 313798-341-R-J2-PDC spheroids, viability
Assay: Anticancer human tumor 313798-341-R-J2-PDC patient-derived cervical squamous cell carcinoma cell line growth inhibition [PI3K]
Details: spheroids with HUVEC and MSC; for IC50: curve of first compound; for viability, T/C: stronger effect = lower value
Procedure, shortened: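 Combination activity was assessed by viability in multicellular tumor spheroids carrying HUVEC and MSC components. Agents were tested with PI3K inhibitors from a Cmax-based top dose (or 10 microM) downward in half-log increments.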

[1] = second compound 0.00316 µM, first compound 0.0316 µM
[2] = second compound 0.00316 µM, first compound 0.1 µM
[3] = second compound 0.00316 µM, first compound 0.316 µM
[4] = second compound 0.00316 µM, first compound 1 µM
[5] = second compound 0.00316 µM, first compound 3.16 µM
[6] = second compound 0.00316 µM, first compound 10 µM
[7] = second compound 0.01 µM, first compound 0.0316 µM
[8] = second compound 0.01 µM, first compound 0.1 µM
[9] = second compound 0.01 µM, first compound 0.316 µM
[10] = second compound 0.01 µM, first compound 1 µM
[11] = second compound 0.01 µM, first compound 3.16 µM
[12] = second compound 0.01 µM, first compound 10 µM
[13] = second compound 0.0316 µM, first compound 0.0316 µM
[14] = second compound 0.0316 µM, first compound 0.1 µM
[15] = second compound 0.0316 µM, first compound 0.316 µM
[16] = second compound 0.0316 µM, first compound 1 µM
[17] = second compound 0.0316 µM, first compound 3.16 µM
[18] = second compound 0.0316 µM, first compound 10 µM
[19] = second compound 0.1 µM, first compound 0.0316 µM
[20] = second compound 0.1 µM, first compound 0.1 µM
[21] = second compound 0.1 µM, first compound 0.316 µM
[22] = second compound 0.1 µM, first compound 1 µM
[23] = second compound 0.1 µM, first compound 3.16 µM
[24] = second compound 0.1 µM, first compound 10 µM
[25] = second compound 0.316 µM, first compound 0.0316 µM
[26] = second compound 0.316 µM, first compound 0.1 µM
[27] = second compound 0.316 µM, first compound 0.316 µM
[28] = second compound 0.316 µM, first compound 1 µM
[29] = second compound 0.316 µM, first compound 3.16 µM
[30] = second compound 0.316 µM, first compound 10 µM
[31] = second compound 1 µM, first compound 0.0316 µM
[32] = second compound 1 µM, first compound 0.1 µM
[33] = second compound 1 µM, first compound 0.316 µM
[34] = second compound 1 µM, first compound 1 µM
[35] = second compound 1 µM, first compound 3.16 µM
[36] = second compound 1 µM, first compound 10 µM
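Also: spheroids exposed to compounds for seven days.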
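For viability, T/C in this document: 100% = DMSO vehicle control viability.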

## C=CC(=O)N1CCN(c2nc(=O)n(-c3c(C)ccnc3C(C)C)c3nc(-c4c(O)cccc4F)c(F)cc23)C(C)C1 (centres undefined) + COc1c(OCCCN2CCOCC2)ccc2c3n(c(=NC(=O)c4cnc(N)nc4)nc12)CCN3
Second compound 0.00316 µM
  IC50: > 10 µM
Second compound 0.01 µM
  IC50: > 10 µM
Second compound 0.0316 µM
  IC50: > 10 µM
Second compound 0.1 µM
  IC50: < 0.0316 µM
Second compound 0.316 µM
  IC50: < 0.0316 µM
Second compound 1 µM
  IC50: < 0.0316 µM
[1]
  viability, T/C: 98.3%
[2]
  viability, T/C: 103%
[3]
  viability, T/C: 106%
[4]
  viability, T/C: 96.1%
[5]
  viability, T/C: 101%
[6]
  viability, T/C: 106%
[7]
  viability, T/C: 92%
[8]
  viability, T/C: 99.4%
[9]
  viability, T/C: 106%
[10]
  viability, T/C: 112%
[11]
  viability, T/C: 112%
[12]
  viability, T/C: 96.5%
[13]
  viability, T/C: 70.6%
[14]
  viability, T/C: 80.3%
[15]
  viability, T/C: 91.4%
[16]
  viability, T/C: 90.4%
[17]
  viability, T/C: 83.6%
[18]
  viability, T/C: 82.9%
[19]
  viability, T/C: 44.8%
[20]
  viability, T/C: 48.9%
[21]
  viability, T/C: 52.1%
[22]
  viability, T/C: 48.7%
[23]
  viability, T/C: 50.1%
[24]
  viability, T/C: 42.9%
[25]
  viability, T/C: 16.8%
[26]
  viability, T/C: 17.9%
[27]
  viability, T/C: 15.4%
[28]
  viability, T/C: 18.2%
[29]
  viability, T/C: 19.1%
[30]
  viability, T/C: 13.5%
[31]
  viability, T/C: 12%
[32]
  viability, T/C: 12.6%
[33]
  viability, T/C: 12.8%
[34]
  viability, T/C: 13.7%
[35]
  viability, T/C: 14.6%
[36]
  viability, T/C: 10.2%

## C#Cc1c(F)ccc2cc(O)cc(-c3ncc4c(N5CC6CCC(C5)N6)nc(OCC56CCCN5CC(F)C6)nc4c3F)c12 (centres undefined) + COc1c(OCCCN2CCOCC2)ccc2c3n(c(=NC(=O)c4cnc(N)nc4)nc12)CCN3
Second compound 0.00316 µM
  IC50: > 10 µM
Second compound 0.01 µM
  IC50: > 10 µM
Second compound 0.0316 µM
  IC50: > 10 µM
Second compound 0.1 µM
  IC50: < 0.0316 µM
Second compound 0.316 µM
  IC50: < 0.0316 µM
Second compound 1 µM
  IC50: < 0.0316 µM
[1]
  viability, T/C: 107%
[2]
  viability, T/C: 103%
[3]
  viability, T/C: 107%
[4]
  viability, T/C: 110%
[5]
  viability, T/C: 108%
[6]
  viability, T/C: 100%
[7]
  viability, T/C: 93.6%
[8]
  viability, T/C: 106%
[9]
  viability, T/C: 105%
[10]
  viability, T/C: 108%
[11]
  viability, T/C: 98.7%
[12]
  viability, T/C: 102%
[13]
  viability, T/C: 70.2%
[14]
  viability, T/C: 83.3%
[15]
  viability, T/C: 96.8%
[16]
  viability, T/C: 78.7%
[17]
  viability, T/C: 72.7%
[18]
  viability, T/C: 77.2%
[19]
  viability, T/C: 40.1%
[20]
  viability, T/C: 47.7%
[21]
  viability, T/C: 45.1%
[22]
  viability, T/C: 42.1%
[23]
  viability, T/C: 39.5%
[24]
  viability, T/C: 32.6%
[25]
  viability, T/C: 17.8%
[26]
  viability, T/C: 18.2%
[27]
  viability, T/C: 16.7%
[28]
  viability, T/C: 13.4%
[29]
  viability, T/C: 15.3%
[30]
  viability, T/C: 6.87%
[31]
  viability, T/C: 9.9%
[32]
  viability, T/C: 13.1%
[33]
  viability, T/C: 12.1%
[34]
  viability, T/C: 11.2%
[35]
  viability, T/C: 8.79%
[36]
  viability, T/C: 4.83%
